How the values were obtained:
[1] = tested on: NB-1 neuroblastoma xenograft; assay: NB-1 neuroblastoma in vivo xenograft model, LDK378 and Compound C alone and combined (Example 2, FIG. 8); settings: NB1 model, PO QD, LDK378 50 mg/kg, Compound C 20 mg/kg
Method: The combination of LDK378 (Compound B) and HDM-2/p53 inhibitor (S)-5-(5-Chloro-1-methyl-2-oxo-1,2-dihydro-pyridin-3-yl)-6-(4-chloro-phenyl)-2-(2,4- dimethoxy-pyrimidin-5-yl)-1-isopropyl-5,6-dihydro-1H-pyrrolo[3,4-d]imidazol-4-one (Compound C) were tested in NB-1 neuroblastoma in vivo xenograft model. A total of 5 animals per group were enrolled in efficacy study. For single-agent and combination studies, animals were dosed via oral gavage for both LDK378 and Compound C. LDK378 was formulated in 0.5% CMC/0.5% Tween 80, and Compound C was formulated in Methylcellulose 0.5% w/V in pH 6.8 50 mM phosphate buffer at 20 mg/kg as free base. For NB1 model, the tumors reached approximately 200 mm^3 at day 16 post implantation. On Day 16, tumor-bearing mice were randomized into treatment groups.
Animals were weighed at dosing day(s) and dose was body weight adjusted, dosing volume was 10 ml/kg. Tumor dimensions and body weights were collected at the time of randomization and twice weekly thereafter for the study duration. The following data was provided after each day of data collection: incidence of mortality, individual and group average body weights, and individual and group average tumor volume.

[2] = tested on: TRP-590A-SHSY5Y-XEF (ALK F1174L mutated); assay: SY5Y Xenograft, LDK378 and CGM097 alone and combined (FIG. 6); assay type: in vivo
p53 = assay: Induction of p53 and its downstream target genes in ALK mutant and p53 WT neuroblastoma cell lines; assay type: cell-based
Method: (§1) Compound stocks of LDK378 (compound B) and NVP-CGM097 (compound A) are prepared in DMSO at a final concentration of 10 mM. Working stocks of compound A and compound B are serially diluted in the appropriate cell culture medium to achieve final assay concentrations ranging from 10 μM to 0.039 μM.
(§2) ALK+NB neuroblastoma cell line is disclosed in G. Barone, et al in the journal Clin. Cancer Res., Vol 19, pp 5814-5821 (2013).

NB-1 Xenograft = assay: NB-1 Xenograft, LDK378 single agent and combinations with CGM097 and LEE011 (FIG. 5, FIG. 7); assay type: in vivo
Text: FIG. 5 summarizes data for treatments with LDK378 (ALK inhibitor) and CGM097 (HDM-2/P53 Inhibitor) as single agents and in combination in a NB-1 Xenograft.
FIG. 7 summarizes data for LDK378 Single Agent and Combination Treatments with NVP-CGM097 in a NB-1 Xenograft. […] After treatment termination, tumors resumed growth.

ALK = ALK phosphorylation in ALK mutant and p53 WT neuroblastoma cell lines; assay type: cell-based
Method: as §1, §2

SMILES	T/C % on day 25 [1]	T/C % on day 25 ([1]; listed as COMPOUND C)	tumor growth under continuous treatment [2]	induction of p53 and its downstream target genes (p53)	tumor growth under continuous treatment (NB-1 Xenograft)	ALK phosphorylation (ALK)
COc1ncc(-c2nc3c(n2C(C)C)[C@H](c2ccc(Cl)cc2)N(c2cc(Cl)cn(C)c2=O)C3=O)c(OC)n1 [Compound C, (S)-5-(5-Chloro-1-methyl-2-oxo-1,2-dihydro-pyridin-3-yl)-6-(4-chloro-phenyl)-2-(2,4-dimethoxy-pyrimidin-5-yl)-1-isopropyl-5,6-dihydro-1H-pyrrolo[3,4-d]imidazol-4-one]	50.8%	50.80%	–	–	–	–
COc1cc2c(cc1OC(C)C)[C@H](c1ccc(Cl)cc1)N(c1ccc(N(C)C[C@H]3CC[C@H](N4CCN(C)C(=O)C4)CC3)cc1)C(=O)C2 [CGM097, (S)-1-(4-Chloro-phenyl)-7-isopropoxy-6-methoxy-2-(4-{methyl-[4-(4-methyl-3-oxo-piperazin-1-yl)-trans-cyclohexylmethyl]-amino}-phenyl)-1,4-dihydro-2H-isoquinolin-3-one]	–	–	continued to grow	caused induction of p53 and its downstream target genes	–	–
Cc1cc(Nc2ncc(Cl)c(Nc3ccccc3S(=O)(=O)C(C)C)n2)c(OC(C)C)cc1C1CCNCC1 [LDK378, 5-chloro-N2-(2-isopropoxy-5-methyl-4-(piperidin-4-yl)phenyl)-N4-[2-(propane-2-sulfonyl)-phenyl]-pyrimidine-2,4-diamine]	27.6%	–	continued to grow	–	resumed growth before day 41	inhibited ALK phosphorylation

From patent publication US20190134033A1, “PHARMACEUTICAL COMBINATIONS” (Novartis AG, priority 2013, published 2019)
